The values below come from US20100137313A1 (ASTRAZENECA AB, priority 2008, published 2010).

Chain of S. pneumoniae Topoisomerase IV ATPase (ParE) (Q59961 whole entry): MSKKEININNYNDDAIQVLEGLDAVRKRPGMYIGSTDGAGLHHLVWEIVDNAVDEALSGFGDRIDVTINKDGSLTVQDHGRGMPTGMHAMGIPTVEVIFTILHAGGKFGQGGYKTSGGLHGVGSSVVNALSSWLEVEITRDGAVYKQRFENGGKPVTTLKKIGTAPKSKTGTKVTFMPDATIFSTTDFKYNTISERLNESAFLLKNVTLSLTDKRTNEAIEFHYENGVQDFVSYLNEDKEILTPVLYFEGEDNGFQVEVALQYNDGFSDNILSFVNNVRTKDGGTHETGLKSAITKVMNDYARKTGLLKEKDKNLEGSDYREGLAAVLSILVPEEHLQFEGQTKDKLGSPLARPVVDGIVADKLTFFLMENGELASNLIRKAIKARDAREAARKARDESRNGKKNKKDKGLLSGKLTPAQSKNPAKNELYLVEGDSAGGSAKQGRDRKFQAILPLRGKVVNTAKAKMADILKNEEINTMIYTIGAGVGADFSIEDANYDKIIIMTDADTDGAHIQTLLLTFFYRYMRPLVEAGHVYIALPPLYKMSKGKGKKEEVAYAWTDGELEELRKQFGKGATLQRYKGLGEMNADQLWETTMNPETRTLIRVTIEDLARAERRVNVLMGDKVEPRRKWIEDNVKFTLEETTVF

The target of the experiment is S. pneumoniae Topoisomerase IV ATPase (ParE) (Streptococcus pneumoniae serotype 4, UniProt Q59961). As to the kind of experiment: S. pneumoniae Topoisomerase IV ATPase inhibition. The experiment is classed as biochemical. The conditions noted are these: values marked * are an average of two or more data points, read-out: % Inh (13 μM) of S. pneumoniae Topoisomerase IV ATPase. An outline of the steps:
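Malachite green/ammonium molybdate phosphate detection, A650. 1.25 nM ParE, 160 μM ATP, sheared salmon sperm DNA 5 μg/ml, 20 mM Tris pH 8.0, 8.0 mM MgCl2. Controls: 2% DMSO = 0%, 20 μM EDTA = 100% inhibition; IC50 over 10 concentrations.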
As for `COc1ncc(-c2cnc(Nc3ccc(F)c(Cl)c3)nc2-n2ccc(C(F)(F)F)n2)cc1C(=O)O` [Example 1066, 5-(2-(3-chloro-4-fluorophenylamino)-4-(3-(trifluoromethyl)-1H-pyrazol-1-yl)pyrimidin-5-yl)-2-methoxynicotinic acid], the inhibition at 13 µM came out at 100%.

Consider `CC1CN(c2nc(Nc3ccc(F)c(Cl)c3)ncc2-c2cccc(/C=C/C(=O)O)c2)CC(C)O1` (centres unmarked) [Example 286, (E)-3-(3-(2-(3-chloro-4-fluorophenylamino)-4-(2,6-dimethylmorpholin-)-pyrimidin-5-yl)phenyl)acrylic acid], for which the inhibition at 13 µM turned out to be 89.8%. For `CNc1ncc(-c2cnc(Nc3cc(OC)cc(OC)c3)nc2-n2nc(C(F)(F)F)cc2C)cc1C(=O)O` [Example 591, 5-(2-(3,5-dimethoxyphenylamino)-4-(5-methyl-3-(trifluoromethyl)-1H-pyrazol-1-yl)pyrimidin-5-yl)-2-(methylamino)nicotinic acid], the inhibition at 13 µM worked out at 100%. With `CCn1cc(-c2cnc(Nc3cc(C)cc(OC)c3)nc2-n2nc(C(F)(F)F)cc2C)cc(C(=O)NS(C)(=O)=O)c1=O` [Example 1176, 1-ethyl-5-{2-[(3-methoxy-5-methylphenyl)amino]-4-[5-methyl-3-(trifluoromethyl)-1H-pyrazol-1-yl]pyrimidin-5-yl}-N-(methylsulfonyl)-2-oxo-1,2-dihydropyridine-3-carboxamide], the inhibition at 13 µM is 100%. Consider `Cc1cc(C(F)(F)F)nn1-c1nc(Nc2ccc(F)c(Cl)c2)ncc1-c1cnc(OC(C)C)c(C(=O)O)c1` [Example 960, 5-(2-(3-chloro-4-fluorophenylamino)-4-(5-methyl-3-(trifluoromethyl)-1H-pyrazol-1-yl)pyrimidin-5-yl)-2-isopropoxynicotinic acid], for which the inhibition at 13 µM turned out to be 100%. Turning to `COc1cc(Nc2ncc(-c3cnc(OC)c(C(=O)NS(=O)(=O)c4c(C)noc4C)c3)c(-n3nc(C(F)(F)F)cc3C)n2)cc(OC)c1` [Example 836, 5-{2-[(3,5-dimethoxyphenyl)amino]-4-[5-methyl-3-(trifluoromethyl)-1H-pyrazol-1-yl]pyrimidin-5-yl}-N-[(3,5-dimethyl-1,2-oxazol-4-yl)sulfonyl]-2-methoxypyridine-3-carboxamide], the inhibition at 13 µM was 94%. `O=C(O)c1cncc(-c2cnc(Nc3ccc(F)c(Cl)c3)nc2N2CCCCCC2)c1` [Example 254, 5-[4-(azepan-1-yl)-2-[(3-chloro-4-fluorophenyl)amino]-pyrimidin-5-yl]pyridine-3-carboxylic acid]: the inhibition at 13 µM was found to be 16.8%. Turning to `Cc1cc(Nc2ncc(-c3cncc(C(=O)O)c3)c(N3CCOCC3)n2)ccc1F` [Example 438], the inhibition at 13 µM is 81%. For `COc1cc(Nc2ncc(-c3ccc(C(=O)O)s3)c(NCCCN(C)C)n2)c(OC)cc1Cl` [Example 347, 5-(2-(4-chloro-2,5-dimethoxyphenyl-amino)-4-(3-(dimethylamino)propylamino)pyrimidin-5-yl)thiophene-2-carboxylic acid], the inhibition at 13 µM stood at 42.2%. Consider `COc1ncc(C(=O)O)cc1-c1cnc(Nc2cc(C)cc(C)c2)nc1-n1nc(C(F)(F)F)cc1C` [Example 1142, 5-(2-(3,5-dimethylphenylamino)-4-(5-methyl-3-(trifluoromethyl)-1H-pyrazol-1-yl)pyrimidin-5-yl)-6-methoxynicotinic acid], for which the inhibition at 13 µM is 100%. As to `NC(=O)c1cccc(Nc2ncc(-c3cccc(/C=C/C(=O)O)c3)c(-n3ccc(C(F)(F)F)n3)n2)c1` [Example 690, (2E)-3-(3-{2-[(3-carbamoylphenyl)amino]-4-[3-(trifluoromethyl)-1H-pyrazol-1-yl]pyrimidin-5-yl}phenyl)prop-2-enoic acid], the inhibition at 13 µM amounted to 100%. In the case of `Cc1cc(C)cc(Nc2ncc(-c3cccc(/C=C/C(=O)O)c3)c(-n3ccc(C(F)(F)F)n3)n2)c1` [Example 617, (2E)-3-(3-{2-[(3,5-dimethylphenyl)amino]-4-[3-(trifluoromethyl)-1H-pyrazol-1-yl]pyrimidin-5-yl}phenyl)prop-2-enoic acid], the inhibition at 13 µM amounted to 100%. For the compound `COc1cc(F)cc(Nc2ncc(-c3cnc(OC)c(C(=O)NS(C)(=O)=O)c3)c(-n3ccc(C(F)(F)F)n3)n2)c1` [Example 897, 5-(2-(3-fluoro-5-methoxyphenylamino)-4-(3-(trifluoromethyl)-1H-pyrazol-1-yl)pyrimidin-5-yl)-2-methoxy-N-(methylsulfonyl)nicotinamide], the inhibition at 13 µM turned out to be 100%. Consider `O=C(O)c1cc(-c2cnc(Nc3ccc(F)c(Cl)c3)nc2N2CCOCC2)cs1` [Example 483, 4-{2-[(3-chloro-4-fluorophenyl)amino]-4-(morpholin-4-yl)pyrimidin-5-yl}thiophene-2-carboxylic acid], for which the inhibition at 13 µM stood at 66%. In the case of `COc1cc(Nc2ncc(-c3cnc(OC)c(C(=O)NS(=O)(=O)CCN4C(=O)CCC4=O)c3)c(-n3nc(C(F)(F)F)cc3C)n2)cc(OC)c1` [Example 848, 5-{2-[(3,5-dimethoxyphenyl)amino]-4-[5-methyl-3-(trifluoromethyl)-1H-pyrazol-1-yl]pyrimidin-5-yl}-N-{[2-(2,5-dioxopyrrolidin-1-yl)ethyl]sulfonyl}-2-methoxypyridine-3-carboxamide] it was 100%; in that of `O=C(O)C1CCCCN1c1cccc(-c2cnc(Nc3ccc(F)c(Cl)c3)nc2-n2ccc(C(F)(F)F)n2)c1` (centres unmarked) [Example 602, 1-(3-{2-[(3-chloro-4-fluorophenyl)amino]-4-[3-(trifluoromethyl)-1H-pyrazol-1-yl]pyrimidin-5-yl}phenyl)piperidine-2-carboxylic acid], 100%.

Take `COc1cc(F)cc(Nc2ncc(-c3cccc(/C=C/C(=O)O)c3)c(N3CCOCC3)n2)c1` [Example 410, (E)-3-{3-[2-(3-Fluoro-5-methoxy-phenylamino)-4-morpholin-4-yl-pyrimidin-5-yl]-phenyl}-acrylic acid]: the inhibition at 13 µM turned out to be 100%. In the case of `CN(C)CCCNc1nc(Nc2ccc(F)c(Cl)c2)ncc1-c1cncc(C(=O)NCc2ccccc2)c1` [Example 371, N-benzyl-5-(2-(3-chloro-4-fluorophenylamino)-4-(3-(dimethylamino)propylamino)pyrimidin-5-yl) nicotinamide], the inhibition at 13 µM is 82.2%. Turning to `CCOC(=O)c1cncc(-c2cnc(Nc3ccc(F)c(Cl)c3)nc2NCCN2CCOCC2)c1` [Example 100, 5-[2-(3-Chloro-4-fluoro-phenylamino)-4-(2-morpholin-4-yl-ethylamino)-pyrimidin-5-yl]-nicotinic acid ethyl ester], the inhibition at 13 µM turned out to be 74.2%. For the compound `COCCCNc1nc(Nc2ccc(F)c(Cl)c2)ncc1-c1nc(-c2ccccc2)c(C(=O)O)s1` [Example 510, 2-{2-[(3-chloro-4-fluorophenyl)amino]-4-[(3-methoxypropyl)amino]pyrimidin-5-yl}-4-phenyl-1,3-thiazole-5-carboxylic acid], the inhibition at 13 µM came out at 97%.

Regarding `COc1cc(Nc2ncc(-c3ccc(C(=O)O)s3)c(NCCCN(C)C)n2)cc(OC)c1` [Example 345, 5-(2-(3,5-dimethoxy-phenylamino)-4-(3-(dimethylamino)propyamino)pyrimidin-5-yl) thiophene-2-carboxylic acid], the inhibition at 13 µM worked out at 82.7%. As to `COCCn1cc(-c2cnc(Nc3ccc(F)c(Cl)c3)nc2-n2ccc(C(F)(F)F)n2)cc(C(=O)O)c1=O` [Example 1081, 5-(2-(3-Chloro-4-fluorophenylamino)-4-(3-(trifluoromethyl)-1H-pyrazol-1-yl)pyrimidin-5-yl)-1-(2-methoxyethyl)-2-oxo-1,2-dihydropyridine-3-carboxylic acid], the inhibition at 13 µM came out at 100%.

In the case of `CCOC(=O)c1cncc(-c2cnc(Nc3ccc(F)c(Cl)c3)nc2N2CCCCCC2)c1` [Example 127, ethyl 5-[4-(azepan-1-yl)-2-[(3-chloro-4-fluorophenyl)amino]pyrimidin-5-yl]pyridine-3-carboxylate], the inhibition at 13 µM was determined as 26.5%. In the case of `CC(=O)N1CCC(Nc2nc(Nc3ccc(F)c(Cl)c3)ncc2-c2cncnc2)CC1` [Example 35, 1-[4-[[2-[(3-chloro-4-fluorophenyl)amino]-5-pyrimidin-5-ylpyrimidin-4-yl]amino]piperidin-1-yl]ethanone] it was 58.3%; in that of `CCOC(=O)c1cncc(-c2cnc(Nc3ccc(F)c(Cl)c3)nc2NC2CCN(C(C)=O)CC2)c1` [Example 92, 5-[4-(1-Acetyl-piperidin-4-ylamino)-2-(3-chloro-4-fluoro-phenylamino)-pyrimidin-5-yl]-nicotinic acid ethyl ester], 3.56%. Regarding `NC(=O)c1cncc(-c2cnc(Nc3ccc(F)c(Cl)c3)nc2-n2ccc(-c3ccsc3)n2)c1` [Example 540, 5-{2-[(3-chloro-4-fluorophenyl)amino]-4-[3-(thiophen-3-yl)-1H-pyrazol-1-yl]pyrimidin-5-yl}pyridine-3-carboxamide], the inhibition at 13 µM was found to be 100%. With `CONC(=O)c1cncc(-c2cnc(Nc3ccc(F)c(Cl)c3)nc2-n2nc(C(F)(F)F)cc2C)c1` [Example 933, 5-(2-(3-chloro-4-fluorophenylamino)-4-(5-methyl-3-(trifluoromethyl)-1H-pyrazol-1-yl)pyrimidin-5-yl)-N-methoxynicotinamide] the figure was 100%; with `COc1cc(Nc2ncc(-c3cnc(OC)c(C(=O)NCCS(C)(=O)=O)c3)c(-n3ccc(C(F)(F)F)n3)n2)cc(OC)c1` [Example 813, 5-{2-[(3,5-dimethoxyphenyl)amino]-4-[3-(trifluoromethyl)-1H-pyrazol-1-yl]pyrimidin-5-yl}-2-methoxy-N-[2-(methylsulfonyl)ethyl]pyridine-3-carboxamide], 100%; with `COc1cc(Nc2ncc(-c3cnc(OC)nc3)c(N3CC(C)OC(C)C3)n2)cc(C(F)(F)F)c1` (centres unmarked) [Example 349, 4-(2,6-dimethylmorpholino)-2′-methoxy-N-(3-methoxy-5-(trifluoromethyl)phenyl)-5,5′-bipyrimidin-2-amine], 83.6%.
